# Biological target: DNMT1 (Homo sapiens, UniProt P26358)
# Test: DNMT1 inhibition assay (transfer of radioactivity from [Me-3H]-SAM to hemimethylated double-stranded DNA)
# Assay type: biochemical
# Conditions: 100 nM DNMT1, 1 μM [Me-3H]-SAM, 1 μM 26 bp hemimethylated DNA substrate, 37° C., 2 hours
# Text: Human DNMT1 C-terminal catalytic domain gene was codon-optimised for E. coli by DNA2.0. The gene was cloned into the pD431-SR vector, KanR resistance, inducible by IPTG. The codon-optimisation gave yields 5 to 10 times greater than previously published reports (e.g. Song, J., Rechkoblit, O., Bestor, T. H., and Patel, D. J., (2011) Science 331(6020): 1036-1040; and Song, 3., Teplova, M., Ishibe-Murakami, S., and Patel, D. J., (2012) Science 335(6069): 709-712). The protein construct has N-terminal His-tag, a SUMO tag, a SUMO protease cleavage site, and the DNMT-catalytic domain.
# DNMT1 inhibitors were assayed by measuring the transfer of radioactivity from tritiated S-adenosylmethionine (SAM) to double-stranded DNA (Du, Q., Z. Wang, Z., and Schramm, V. L., Proc. Natl. Acad. Sci. USA, 2016, 113, 2916-2921). The double stranded DNA molecule contains exactly one hemimethylated CpG located in the centre of the sequence. The design allows one methylation occurrence per DNA molecule, preventing any processive methylation along or across the strand.
# [Me-^3H] S-Adenosyl methionine ([Me-^3H]-SAM) was enzymatically synthesized using bacterial chlorinase (SaIL) enzyme (Nat Chem Biol. 2008 Jan.; 4 (1):69-74. Epub 2007 Dec. 2. Discovery and characterization of a marine bacterial SAM-dependent chlorinase. Eustáquio AS^1, Pojer F, Noel J P, Moore B S.), starting from 5′-Chloro-5′-deoxyadenosine and L-[Methyl-^3H]-Methionine (Org Biomol Chem. 2016 Jul. 14; 14(26):6189-92. doi: 10.1039/c6ob00844e. Epub 2016 Jun. 6. Chemoenzymatic synthesis and utilization of a SAM analog with an isomorphic nucleobase. Vranken C^1, Fin A, Tufar P, Hofkens J, Burkart M D, Tor Y.). A reaction (500 μL) containing 500 μCi L-[Methyl-3H]-Methionine (PerkinElmer), 0.3 mM unlabeled methionine, 1 mM 5′-Chloro-5′-deoxyadenosine, 50 mM phosphate buffer pH 7.6 and 20 μM SaIL enzyme was incubated at room temperature. After 2 hours of incubation, reaction was stopped using 50 mM sulfuric acid. The [Me-^3H]-SAM was purified using C-18 reverse-phase HPLC using a gradient (buffer A: 50 mM ammonium acetate pH 4.3; buffer B: 0.1% acetic acid and 50% acetonitrile). The fractions containing [Me-^3H]-SAM were pooled and lyophilized overnight. Purified [Me-^3H]-SAM was always kept frozen at −80° C. until further use.
# The DNMT1 assays were carried to determine the IC50 with transition state analogs. The reaction (100 μL) containing 50 mM Tris-HCl pH 8.0, 100 mM KCl, 50 ug/mL BSA, 2 mM DTT, 1 μM freshly prepared [Me-3H]-SAM, 1 μM 26 bp hemimethylated DNA substrate and varying concentrations of each inhibitor ([…]), incubated at 37° C. with 100 nM DNMT1. The reaction fractions (50 μL) were taken at 2 hours. The methylated DNA was purified by using Micro Bio-spin P-30 columns (Bio-Rad). Purified samples were mixed with 10 mL of scintillation liquid (PerkinElmer), and counted for radioactivity in a Tricarb 2910 TR scintillation counter (PerkinElmer). The values obtained in the absence of DNMT1 in the reaction were used as controls. The assay data were analyzed using GraphPad Prism for IC50 calculations. The hemimethylated DNA sequences used in the assays contained 26 bp, as follows: 26a oligo 5′-[…]-3′ [SEQ ID No. 1], and 26bm oligo 5′-ACTCATACCAAT/iMe-dC/GATACCAAGGTAG-3′ [SEQ ID No. 2], where iMe-dC is a 5-methyl-C base.
# IC50 values were obtained from plots of percent inhibition versus inhibitor concentration.
# Sequence of DNMT1 (P26358 whole entry, looked up): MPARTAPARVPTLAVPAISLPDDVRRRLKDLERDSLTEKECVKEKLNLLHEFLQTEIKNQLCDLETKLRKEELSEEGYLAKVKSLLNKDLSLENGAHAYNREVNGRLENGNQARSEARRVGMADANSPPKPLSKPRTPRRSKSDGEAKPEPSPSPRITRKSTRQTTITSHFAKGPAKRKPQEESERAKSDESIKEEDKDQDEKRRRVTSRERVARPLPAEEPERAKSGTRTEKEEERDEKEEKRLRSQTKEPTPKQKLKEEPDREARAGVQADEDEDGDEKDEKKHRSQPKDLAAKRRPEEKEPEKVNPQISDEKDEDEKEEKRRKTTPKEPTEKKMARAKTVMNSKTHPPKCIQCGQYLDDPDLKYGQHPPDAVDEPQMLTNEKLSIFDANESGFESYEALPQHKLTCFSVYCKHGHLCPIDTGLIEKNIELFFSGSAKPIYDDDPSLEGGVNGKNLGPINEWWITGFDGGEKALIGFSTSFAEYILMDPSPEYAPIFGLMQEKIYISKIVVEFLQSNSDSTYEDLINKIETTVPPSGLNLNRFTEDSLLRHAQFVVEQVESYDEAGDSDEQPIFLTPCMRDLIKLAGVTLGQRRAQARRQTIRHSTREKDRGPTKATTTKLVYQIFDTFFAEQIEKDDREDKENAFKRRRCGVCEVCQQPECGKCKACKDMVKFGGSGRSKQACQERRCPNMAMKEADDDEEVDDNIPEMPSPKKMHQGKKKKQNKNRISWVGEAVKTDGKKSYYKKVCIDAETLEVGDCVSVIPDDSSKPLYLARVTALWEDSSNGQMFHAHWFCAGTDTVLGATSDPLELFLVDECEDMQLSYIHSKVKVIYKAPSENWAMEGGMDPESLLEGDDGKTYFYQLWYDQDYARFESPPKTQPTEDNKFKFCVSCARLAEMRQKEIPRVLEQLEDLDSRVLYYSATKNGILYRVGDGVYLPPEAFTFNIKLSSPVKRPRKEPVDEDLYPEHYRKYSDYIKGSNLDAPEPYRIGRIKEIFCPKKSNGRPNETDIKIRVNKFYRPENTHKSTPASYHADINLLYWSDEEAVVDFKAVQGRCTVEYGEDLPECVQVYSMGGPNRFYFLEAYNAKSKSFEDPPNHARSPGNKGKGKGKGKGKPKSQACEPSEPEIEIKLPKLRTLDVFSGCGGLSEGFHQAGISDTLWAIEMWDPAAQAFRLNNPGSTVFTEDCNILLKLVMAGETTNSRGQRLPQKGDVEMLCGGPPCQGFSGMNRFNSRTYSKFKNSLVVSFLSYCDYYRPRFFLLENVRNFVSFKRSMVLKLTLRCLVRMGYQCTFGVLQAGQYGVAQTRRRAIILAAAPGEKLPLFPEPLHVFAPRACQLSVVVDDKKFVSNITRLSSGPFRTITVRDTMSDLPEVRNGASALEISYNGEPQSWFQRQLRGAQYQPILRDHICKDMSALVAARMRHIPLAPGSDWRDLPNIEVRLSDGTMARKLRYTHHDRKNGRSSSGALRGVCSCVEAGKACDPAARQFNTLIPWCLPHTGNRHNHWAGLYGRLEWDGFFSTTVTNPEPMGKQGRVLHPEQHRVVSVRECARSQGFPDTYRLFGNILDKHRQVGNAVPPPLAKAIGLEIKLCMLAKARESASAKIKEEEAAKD
row,Compound,IC50
1,"Nc1nc(=O)n(C2C[C@H](O)[C@@H](CO)O2)cc1CCN(CC[C@H](N)C(=O)O)C[C@H]1O[C@@H](n2cnc3c(N)ncnc32)[C@H](O)[C@@H]1O (stereo in doubt) [Compound 56, (S)-2-amino-4-((2-(4-amino-1-((2S,4S,5R)-4-hydroxy-5-(hydroxymethyl)tetrahydrofuran-2-yl)-2-oxo-1,2-dihydropyrimidin-5-yl)ethyl)(((2R,3S,4R,5R)-5-(6-amino-9H-purin-9-yl)-3,4-dihydroxytetrahydrofuran-2-yl)methyl)amino)butanoic acid]",1.9 ± 0.1 µM
2,"NC1=NC(=O)N([C@H]2C[C@H](O)[C@@H](CO)O2)CN1CCCCCN(CC[C@H](N)C(=O)O)C[C@H]1O[C@@H](n2cnc3c(N)ncnc32)[C@H](O)[C@@H]1O [Compound 86, (S)-2-amino-4-((5-(6-amino-3-((2R,4S,5R)-4-hydroxy-5-(hydroxymethyl)tetrahydrofuran-2-yl)-4-oxo-3,4-dihydro-1,3,5-triazin-1(2H)-yl)pentyl)(((2R,3S,4R,5R)-5-(6-amino-9H-purin-9-yl)-3,4-dihydroxytetrahydrofuran-2-yl)methyl)amino)butanoic acid]",6 ± 1.8 µM
3,"Nc1nc(=O)n([C@H]2C[C@H](O)[C@@H](CO)O2)cc1CNCC(CC[C@H](N)C(=O)O)C[C@H]1O[C@@H](n2cnc3c(N)ncnc32)[C@H](O)[C@@H]1O (stereo partly drawn) [Compound 70, 2-amino-5-[[[4-amino-1-[(2R,4S,5R)-4-hydroxy-5-(hydroxymethyl)tetrahydrofuran-2-yl]-2-oxo-pyrimidin-5-yl]methylamino]methyl]-6-[(2R,3S,4R,5R)-5-(6-aminopurin-9-yl)-3,4-dihydroxy-tetrahydrofuran-2-yl]hexanoic acid]",2.2 ± 0.5 µM
4,"Nc1nc(=O)n(C2C[C@H](O)[C@@H](CO)O2)cc1CCCN(CC[C@H](N)C(=O)O)C[C@H]1O[C@@H](n2cnc3c(N)ncnc32)[C@H](O)[C@@H]1O (stereo in doubt) [Compound 33, (S)-2-amino-4-((3-(4-amino-1-((2S,4S,5R)-4-hydroxy-5-(hydroxymethyl)tetrahydrofuran-2-yl)-2-oxo-1,2-dihydropyrimidin-5-yl)propyl)(((2R,3S,4R,5R)-5-(6-amino-9H-purin-9-yl)-3,4-dihydroxytetrahydrofuran-2-yl)methyl)amino)butanoic acid]",0.8 ± 0.1 µM
5,"Nc1nc(=O)n([C@H]2C[C@H](O)[C@@H](CO)O2)cc1CN(CC[C@H](N)C(=O)O)C[C@H]1O[C@@H](n2cnc3c(N)ncnc32)[C@H](O)[C@@H]1O [Compound 7, (S)-2-amino-4-(((4-amino-1-((2R,4S,5R)-4-hydroxy-5-(hydroxymethyl)tetrahydrofuran-2-yl)-2-oxo-1,2-dihydropyrimidin-5-yl)methyl)(((2R,3S,4R,5R)-5-(6-amino-9H-purin-9-yl)-3,4-dihydroxytetrahydrofuran-2-yl)methyl)amino)butanoic acid]",0.7 ± 0.1 µM
6,"Nc1nc(=O)n(C2C[C@H](O)[C@@H](CO)O2)cc1SCCN(CC[C@H](N)C(=O)O)C[C@H]1O[C@@H](n2cnc3c(N)ncnc32)[C@H](O)[C@@H]1O (stereo in doubt) [Compound 42, (S)-2-amino-4-((2-((4-amino-1-((2S,4S,5R)-4-hydroxy-5-(hydroxymethyl)tetrahydrofuran-2-yl)-2-oxo-1,2-dihydropyrimidin-5-yl)thio)ethyl)(((2R,3S,4R,5R)-5-(6-amino-9H-purin-9-yl)-3,4-dihydroxytetrahydrofuran-2-yl)methyl)amino)butanoic acid]",15.4 ± 6.2 µM

# From patent publication US11518779B2, “Inhibitors of DNMT1 as anticancer therapeutic agents” (Victoria Link Limited, priority 2018, dated 2022)
